Assay results taken from patent US12358960B2, “Selective targeting of ubiquitin- and ubiquitin-like E1-activating enzymes by structurally-stabilized peptides” (Dana-Farber Cancer Institute, Inc., priority 2019, dated 2025).
“Also recorded” adds a separate entry of the source. Bridge positions count the residues as written; N and C are the ends. Square brackets hold non-standard residues; d marks the D form. Ends that are not written are not given here. * marks the point of attachment. R8 = C=CCCCCCC[C@@](C)(N)C(=O)O; S5 = C=CCCC[C@](C)(N)C(=O)O; Nle = CCCC[C@H](N)C(=O)O; Dab = NCC[C@H](N)C(=O)O; Acryloyl = C=CC(=O)*

Target: T1, Human E1 activating enzyme UBA1 (Homo sapiens, UniProt P22314)
T1 sequence (P22314 1-1058): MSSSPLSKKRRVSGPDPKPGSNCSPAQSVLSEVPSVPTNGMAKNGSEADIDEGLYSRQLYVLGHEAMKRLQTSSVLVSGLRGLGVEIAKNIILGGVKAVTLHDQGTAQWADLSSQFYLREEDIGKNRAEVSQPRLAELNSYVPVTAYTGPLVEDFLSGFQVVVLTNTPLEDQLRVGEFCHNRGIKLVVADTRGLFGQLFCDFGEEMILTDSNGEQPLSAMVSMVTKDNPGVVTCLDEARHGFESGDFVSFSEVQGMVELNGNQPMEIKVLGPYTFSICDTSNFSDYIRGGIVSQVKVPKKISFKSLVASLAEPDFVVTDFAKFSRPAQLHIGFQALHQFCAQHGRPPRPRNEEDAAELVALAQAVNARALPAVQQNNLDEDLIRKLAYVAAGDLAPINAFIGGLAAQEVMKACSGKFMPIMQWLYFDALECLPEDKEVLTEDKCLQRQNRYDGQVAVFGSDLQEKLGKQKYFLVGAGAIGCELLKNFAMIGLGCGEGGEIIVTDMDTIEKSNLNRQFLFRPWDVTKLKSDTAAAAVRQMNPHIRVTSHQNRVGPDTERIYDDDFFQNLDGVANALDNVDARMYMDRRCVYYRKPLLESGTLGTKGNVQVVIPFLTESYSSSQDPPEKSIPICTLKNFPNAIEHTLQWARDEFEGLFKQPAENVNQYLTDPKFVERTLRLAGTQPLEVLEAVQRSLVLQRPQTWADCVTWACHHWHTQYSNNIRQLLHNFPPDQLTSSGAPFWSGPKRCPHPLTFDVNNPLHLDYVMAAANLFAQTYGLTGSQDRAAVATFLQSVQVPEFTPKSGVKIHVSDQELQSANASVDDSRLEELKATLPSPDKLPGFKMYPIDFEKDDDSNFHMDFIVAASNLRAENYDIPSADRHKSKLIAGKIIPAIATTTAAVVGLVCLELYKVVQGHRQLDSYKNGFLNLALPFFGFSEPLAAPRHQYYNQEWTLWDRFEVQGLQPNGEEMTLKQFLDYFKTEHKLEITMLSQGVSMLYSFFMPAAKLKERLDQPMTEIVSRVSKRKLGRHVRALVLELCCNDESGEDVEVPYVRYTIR
Test: In vitro enzyme inhibition assay: E1-mediated ubiquitin thioester transfer to E2 (band shift, silver stain)
Format: biochemical
Details: for inhibition of E1-mediated ubiquitin transfer to E2 (conversion of E2 to E2~ubiquitin): 100 μM peptide, staple scan; for inhibition of E1-mediated ubiquitin transfer to E2 (conversion of E2 to E2~ubiquitin) / inhibition of E1-mediated thioester transfer to E2, dose response: UbcH5b E2 enzyme, 45 minutes; for inhibition of E1-mediated thioester transfer to E2 by mutant / additional stapled peptides: SAH-UBE2A-11 variants and controls, Examples 4, 7, 13; for inhibition of E1-mediated thioester transfer to E2 by warhead-bearing stapled peptides: Example 8; for inhibition of E1-mediated thioester transfer to E2, dose response: range of peptide concentrations
Method: In vitro Enzyme Inhibition Assays: To assess an E2 hA peptide's inhibition of an E1 enzyme, an in vitro enzyme inhibition assay can be used, for example. The in vitro enzyme inhibition assay measures an E2 hA peptide's ability to inhibit conjugation of ubiquitin to E2 by E1. Briefly, recombinant E1 (e.g., UBA1), recombinant E2 (e.g., UBE2A), ubiquitin, and Mg-ATP are combined in the presence of an E2 hA peptide or vehicle control (e.g., 1% DMSO) for a period of time (e.g., 30 minutes) at room temperature in a buffer containing, e.g., 50 mM NaCl, 50 mM HEPES pH 7.5. Control reaction includes no E1. Reactions are quenched by addition of SDS-containing loading dye and samples are resolved on a gel (e.g., a 4-12% Bis-Tris protein gel) under nonreducing conditions. Proteins on the gel are visualized via, e.g., silver stain. Conjugation of ubiquitin to E2 by E1 is monitored by conversion of free E2 (˜17 kDa) to E2˜ubiquitin conjugate (˜26 kDa).
Control reaction included no E1 enzyme. Reactions were quenched by addition of SDS-containing loading dye and samples were resolved on a 4-12% Bis-Tris protein gel under nonreducing conditions. Proteins were visualized via silver stain. Conjugation of ubiquitin to E2 by E1 was monitored by conversion of free E2 (17 kDa) to E2˜ubiquitin conjugate (26 kDa).
The ability of the peptides to inhibit E1-mediated thioester transfer to E2 was evaluated. Human E1 activating enzyme UBA1 (10 nM), UbcH5b E2 enzyme (150 nM), ubiquitin (1 μM), and Mg-ATP (20 μM) were combined in the presence of stapled peptide at a range of concentrations or vehicle control (1% DMSO) for 45 minutes at room temperature in buffer containing 50 mM NaCl, 50 mM HEPES, 1 mM TCEP pH 7.5. Reactions were quenched by addition of SDS-containing loading dye and samples were resolved on a 4-12% Bis-Tris protein gel under nonreducing conditions. Proteins were visualized via silver stain. Conjugation of ubiquitin to E2 by E1 was monitored by conversion of free E2 (17 kDa) to E2˜ubiquitin conjugate (26 kDa). Inhibition percentage was calculated from densitometry of silver stain images.
Streptavidin-biotin pull-down assays: For recombinant protein pull-downs, 10 pmol recombinant human UBA1 was incubated with 5 nmol C-terminally biotinylated SAH-UBE2A or DMSO vehicle control in a total volume of 1 mL binding buffer (50 mM NaCl, 20 mM HEPES, pH 7.4, 5 mM DTT) for 1.5 hours at 4° C. 30 μL of pre-equilibrated streptavidin agarose beads were then added and incubated for an additional 1.5 hours at 4° C. The beads were pelleted by centrifugation and washed three times with NP-40 buffer (20 mM HEPES, pH 7.4, 50 mM NaCl, 5 mM DTT, 0.5% [v/v] NP-40) before eluting the protein sample from the beads by heating at 70° C. for 10 min in 3×SDS loading buffer. Samples were subjected to electrophoresis and silver staining (Pierce 24612). For pull-down from cellular lysates, 0.75 mg HeLa cell lysate was incubated with 5 nmol C-terminally biotinylated SAH-UBE2A or DMSO vehicle control in a total volume of 1 mL binding buffer (50 mM NaCl, 20 mM HEPES, pH 7.4, 5 mM DTT) containing protease-phosphatase inhibitor cocktail for 2 hours at 4° C. 30 μL of pre-equilibrated streptavidin agarose beads (ThermoFisher 20357) were then added and incubated for an additional 1.5 hours at 4° C. The beads were pelleted by centrifugation and washed three times with NP-40 buffer (20 mM HEPES, pH 7.4, 50 mM NaCl, 5 mM DTT, 0.5% [v/v] NP-40) before eluting the protein sample from the beads by heating at 70° C. for 10 min in 3×SDS loading buffer. Proteins were separated by SDS-PAGE gel electrophoresis and detected by western blot against UBE1 (Abcam ab34711). In vitro Enzyme Inhibition Assays: Recombinant human E1 activating enzyme UBA1 (10 nM), E2 enzyme (150 nM), ubiquitin (1 μM), and Mg-ATP (20 μM) are combined in the presence of peptide or vehicle control (1% DMSO) for 45 minutes at room temperature in buffer containing 50 mM NaCl, 50 mM HEPES pH 7.5. Control reaction includes no E1 enzyme. […]

Substance	inhibition of E1-mediated ubiquitin transfer to E2 (conversion of E2 to E2~ubiquitin)	further results
BPSSASRX2LLRX2QLKEIQ [SEQ ID NO:43]	unable to inhibit E1-mediated ubiquitin transfer to E2	–
BPSSASRQLX1RKQLKEX2Q [SEQ ID NO:54]	unable to inhibit E1-mediated ubiquitin transfer to E2	–
BSTPX1RARAARX2FKRLQ (Ac-[Nle]STP[R8]RARAAR[S5]FKRLQ-NH2; staple 5-12) [SAH-UBE2A-AAA]	–	inhibition of E1-mediated thioester transfer to E2 by mutant / additional stapled peptides: no inhibitory activity; also recorded: progressively impaired inhibitory activity as compared to the single point mutation peptide SAH-UBE2A-R7E; also recorded: negligible inhibitory activity
BSTPX1RARLBRX2FKRLQ (Ac-[Nle]STP[R8]RARL[Nle]R[S5]FKRLQ-NH2; staple 5-12) [SEQ ID NO:817]	–	inhibition of E1-mediated thioester transfer to E2 by mutant / additional stapled peptides: impair the inhibitory activity of SAH-UBE2A-11
BPSSAX1RQLLRJX2LKEIQ ([Nle]PSSA[R8]RQLLR[Dab](Acryloyl)[S5]LKEIQ; staple 6-13; not fully specified (N-terminus, C-terminus); printed as BPSSAX1RQLLRJX2LKEIQ) [SEQ ID NO:842, warhead-bearing stapled peptide, J acrylamide-bearing Dab at A8, staple A2 and A9]	–	inhibition of E1-mediated thioester transfer to E2 by warhead-bearing stapled peptides: inhibited E1-mediated thioester transfer to E2
BPSSX1SRQLLRX2QLJEIQ ([Nle]PSS[R8]SRQLLR[S5]QL[Dab](Acryloyl)EIQ; staple 5-12; not fully specified (N-terminus, C-terminus); printed as BPSSX1SRQLLRX2QLJEIQ) [SEQ ID NO:841, warhead-bearing stapled peptide, J acrylamide-bearing Dab at A11, staple A1 and A8]	–	inhibition of E1-mediated thioester transfer to E2 by warhead-bearing stapled peptides: inhibited E1-mediated thioester transfer to E2
BAGTX1LKRLBAX2YK [SAH-UBE2G2-11]	–	inhibition of E1-mediated thioester transfer to E2, dose response: inhibited E1-mediated thioester transfer to E2 in a dose-dependent manner; also recorded: dose-dependently inhibit E1-mediated thioester transfer to E2
BPSSASX1QLLRKQX2KEIQ [SEQ ID NO:51]	unable to inhibit E1-mediated ubiquitin transfer to E2	–
BPSSASRQX2LRKX2LKEIQ [SEQ ID NO:44]	inhibited conversion of E2 to E2˜ubiquitin by E1	–
BPSSX1SRQLLRX2QLKEIQ [SEQ ID NO:49]	inhibited conversion of E2 to E2˜ubiquitin by E1	–
BSTPX1RRRABRX2FKRLQ ([Nle]STP[R8]RRRA[Nle]R[S5]FKRLQ-NH2; staple 5-12; not fully specified (N-terminus); printed as BSTPX1RRRABRX2FKRLQ) [SEQ ID NO:819]	–	inhibition of E1-mediated thioester transfer to E2 by mutant / additional stapled peptides: impair the inhibitory activity of SAH-UBE2A-11
BX1LKRIHKX2LNDLARD [SAH-UBE2D2-11]	–	inhibition of E1-mediated thioester transfer to E2, dose response: inhibited E1-mediated thioester transfer to E2 in a dose-dependent manner; also recorded: dose-dependently inhibit E1-mediated thioester transfer to E2
BPSSASRX1LLRKQLX2EIQ [SEQ ID NO:52]	inhibited conversion of E2 to E2˜ubiquitin by E1	–
BPSSASRQLLRKX2LKEX2Q [SEQ ID NO:47]	inhibited conversion of E2 to E2˜ubiquitin by E1	–
BPSSASRQLLRKQX2KEIX2 [SEQ ID NO:48]	unable to inhibit E1-mediated ubiquitin transfer to E2	–
BSTPX1RRRLARX2FKRLQ (Ac-[Nle]STP[R8]RRRLAR[S5]FKRLQ-NH2; staple 5-12) [SEQ ID NO:820]	–	inhibition of E1-mediated thioester transfer to E2 by mutant / additional stapled peptides: impair the inhibitory activity of SAH-UBE2A-11
BPSSASRQLLRX2QLKX2IQ [SEQ ID NO:46]	inhibited conversion of E2 to E2˜ubiquitin by E1	–
BPSSASRQX1LRKQLKX2IQ [SEQ ID NO:53]	inhibited conversion of E2 to E2˜ubiquitin by E1	–
BPSSAX2RQLX2RKQLKEIQ [SEQ ID NO:42]	unable to inhibit E1-mediated ubiquitin transfer to E2	–
X1ALKRIHX2ELJDLARD ([R8]ALKRIH[S5]EL[Dab](Acryloyl)DLARD; staple 1-8; not fully specified (N-terminus, C-terminus); printed as X1ALKRIHX2ELJDLARD) [SEQ ID NO:763, warhead-bearing stapled peptide, J acrylamide-bearing Dab at A11, staple A1 and A8]	–	inhibition of E1-mediated thioester transfer to E2 by warhead-bearing stapled peptides: did not inhibit E1-mediated thioester transfer to E2
BX1LKRIHKX2LJDLARD ([Nle][R8]LKRIHK[S5]L[Dab](Acryloyl)DLARD; staple 2-9; not fully specified (N-terminus, C-terminus); printed as BX1LKRIHKX2LJDLARD) [SEQ ID NO:727, warhead-bearing stapled peptide, J acrylamide-bearing Dab at A11, staple A2 and A9]	–	inhibition of E1-mediated thioester transfer to E2 by warhead-bearing stapled peptides: inhibited E1-mediated thioester transfer to E2
